This assay deals with dystrophin. In words: Immunohistochemical staining and quantification of dystrophin in mdx mice after single IV injection. It counts as in vivo. The settings on record: 8 week old mdx mice, single 12.5 mg/kg IV, 2 weeks after injection. An excerpt: Given the potency of Pip5e-PMO in heart tissue, the aim of altering the sequence of the hydrophobic core (whilst maintaining the 5-aa length) was to identify peptides that might be more efficient at lower doses. These modifications included inversion of the hydrophobic region (Pip6a), substitution of tyrosine by isoleucine (Pip6b), substitution of glutamine in the Pip6a sequence by displacement of the arginine immediately flanking the core in the first arginine-rich flanking region (Pip6e), and a scrambled hydrophobic core sequence (Pip6f). All Pip6 peptide-PMO conjugates were administered to mdx mice as single 12.5 mg/kg intravenous injections via the tail vein and tissues were harvested 2 weeks later and assessed for activity at both RNA and protein levels.
Immunohistochemical staining quantification (FIGS. 34a, b) was performed as previously described [Malerba, A., et al., Chronic systemic therapy with low-dose morpholino oligomers ameliorates the pathology and normalizes locomotor behavior in mdx mice. Mol Ther, 2011. 19(2): p. 345-54; Arechavala-Gomeza, V., et al., Immunohistological intensity measurements as a tool to assess sarcolemma-associated protein expression. Neuropathol Appl Neurobiol, 2010. 36(4): p. 265-74.] and was achieved by taking 4 representative frames of the dystrophin staining and correlating this with laminin staining for each section (n=3) of the quadriceps, diaphragm and heart for each peptide-PMO treatment. Untreated mdx and treated mdx mice were normalised to C57BL10 mice. This method allows comparison of the staining intensity of dystrophin at the sarcolemma relative to laminin for each treatment group. Intensity ratios are normalised to C57BL10 samples and each region of interest at the sarcolemma (120 regions for each treatment group) is plotted on a scatter graph. […]
Transverse sections of tissue samples were cut (8 μm thick) for the examination of dystrophin expression. For dystrophin visualisation and quantification, sections were co-stained with rabbit-anti-dystrophin (Abcam) and rat anti-laminin (Sigma), and detected by goat-anti-rabbit IgG Alexa 594 and goat-anti-rat IgG 488 secondary antibodies respectively (Invitrogen). […] Quantitative immunohistochemistry was performed as previously described [Malerba, A., et al., Chronic systemic therapy with low-dose morpholino oligomers ameliorates the pathology and normalizes locomotor behavior in mdx mice. […] For quantification, 4 representative frames of the dystrophin and correlating laminin were taken for each section (n=3) of the quadriceps, diaphragm and heart for each treatment. […] The minimum and maximum fluorescence intensity for 120 regions were recorded for each treatment. […]

Non-standard residues stand in square brackets, D forms with d. No end group written: not given here. Ahx = NCCCCCC(=O)O; βAla = NCCC(=O)O

Take “Pip9d2: Pip9 series peptide (SEQ ID Nos 320-328) conjugated to PMODMD (R[Ahx]RR[βAla]RFQILY[βAla]R[Ahx]R[βAla]; also: conjugated to PMO (PMODMD))”: the “dystrophin expression in the heart” value is “negligible dystrophin production”.
